Reference: ChEMBL document CHEMBL4732152, “Flavonoids from Woodfordia fruticosa as potential SmltD inhibitors in the alternative biosynthetic pathway of peptidoglycan” (Bioorg Med Chem Lett, 2021)
Activity calls are given as the source filed them. The rule behind the calls is not given here. *1 amine or outer side, *2 acyl side, *3 side chain or, on linkers, in order; H or OH if unused. Where a SMILES comes first, the peptide text is derived from it. Bridges are numbered along the chain shown (N, C = ends). Roman numbers before positions name the chains, in order. [ ]: non-standard residue; d: D form. Actinocin(1to9) = Cc1c2oc3c(C)ccc(C(=O)[*:2])c3nc-2c(C(=O)[*:1])c(N)c1=O; NMeV = CN[C@H](C(=O)O)C(C)C; Sar = CNCC(=O)O

Assays:
[1] = Competitive inhibition of Stenotrophomonas maltophilia SmltD assessed as inhibition constant using ATP as substrate by Dixon plot analysis
[2] = tested on: Stenotrophomonas maltophilia; experiment: Non-Competitive inhibition of Stenotrophomonas maltophilia SmltD using UDP-MurNAc-L-Ala[…] as substrate by Dixon plot analysis
[3] = Inhibition of Stenotrophomonas maltophilia SmltD using UDP-MurNAc-L-Ala[…] as substrate in presence of ATP incubated for 5 mins by HPLC
[4] = tested on: Stenotrophomonas maltophilia; experiment: Non-Competitive inhibition of Stenotrophomonas maltophilia SmltD using […] as substrate by Dixon plot analysis

Row | SMILES | IC50 ([3]; read-out: IC50) [mM] | other results
1 | Cc1c2oc3c(C)ccc(C(=O)N[C@@H]4C(=O)N[C@H](C(C)C)C(=O)N5CCC[C@H]5C(=O)N(C)CC(=O)N(C)[C@@H](C(C)C)C(=O)O[C@@H]4C)c3nc-2c(C(=O)N[C@@H]2C(=O)N[C@H](C(C)C)C(=O)N3CCC[C@H]3C(=O)N(C)CC(=O)N(C)[C@@H](C(C)C)C(=O)O[C@@H]2C)c(N)c1=O [DACTINOMYCIN] (I: T[dV]P[Sar][NMeV] / II: T[dV]P[Sar][NMeV]; ester I:1-I:C, II:1-II:C; linker I:N-II:N via Actinocin(1to9)) | 14.6 | –
2 | O[C@H]1[C@H](O)[C@@H](O)OC[C@H]1O | – | IC50 [3]: Not Active
3 | O=C(O)c1cc(O)c(O)c(O)c1 [GALLIC ACID] | 2.86 | –
4 | OC[C@H]1O[C@@H](O)[C@H](O)[C@@H](O)[C@@H]1O [beta-D-Glucose] | – | IC50 [3]: Not Active

The next lines start with results.

Row | IC50 ([3]; read-out: IC50) [mM] | SMILES | other results
5 | 0.46 | O=C(OC[C@H]1O[C@@H](Oc2c(-c3ccc(O)cc3)oc3cc(O)cc(O)c3c2=O)[C@H](O)[C@@H](O)[C@@H]1O)c1cc(O)c(O)c(O)c1 | Ki [1]: 110 µM; inhibition [2]: Active; inhibition [4]: Active
6 | 1.18 | O=c1c(O[C@@H]2O[C@H](CO)[C@@H](O)[C@H](O)[C@H]2O)c(-c2ccc(O)cc2)oc2cc(O)cc(O)c12 [ASTRAGALIN] | –
7 | 2.05 | O=c1c(O[C@H]2OC[C@@H](O)[C@@H](O)[C@@H]2O)c(-c2ccc(O)cc2)oc2cc(O)cc(O)c12 | –
8 | 2.36 | O=c1c(O)c(-c2ccc(O)cc2)oc2cc(O)cc(O)c12 [KAEMPFEROL] | –
